Results from article PMC12298624, “Anti-Infective Properties, Cytotoxicity, and In Silico ADME Parameters of Novel 4′-(Piperazin-1-yl)benzanilides” (Pharmaceuticals, 2025).
pIC50: −log10 of the molar value. Like-named read-outs stand apart in the source and are kept apart here.

Columns and labels:
P. falciparum NF54 = experiment: In vitro microplate assay against P. falciparum NF54 (3H-hypoxanthine incorporation); type: cell-based, Plasmodium falciparum; settings: read-out: P.f.NF54 IC50
Procedure: Serial drug dilutions of eleven 3-fold dilution steps covering a range from 100 to 0.002 µg/mL were prepared. […] After 48 h of incubation time, 0.05 mL of ^3H-hypoxanthine (=0.5 µCi) was added to each well of the plate. The plates were incubated for a further 24 h under the same conditions. Plates were then harvested using a BetaplateTM cell harvester (Wallac, Zurich, Switzerland). Red blood cells were transferred onto a glass fiber filter and then washed with distilled aqua demin. The dried filters were inserted into a plastic foil with 10 mL of scintillation fluid and counted in a BetaplateTM liquid scintillation counter (Wallac, Zurich, Switzerland). IC50 values were calculated from sigmoidal inhibition curves by linear regression using Microsoft Excel. […] Louis, MO, USA) was used as control.

[1] = Parallel artificial membrane permeability assay (PAMPA); settings: PAMPA, PBS pH 7.4, 200 µM, 5 h, room temperature; for Papp at 5 h, 200 µM: pH 7.4, Pe
Procedure: With the high-throughput PAMPA the newly synthesized compounds were tested for their passive permeability through cell membranes without the influence of efflux pumps or transporter proteins. The assay was performed using a Corning® Gentest^TM Precoated PAMPA Plate System (Corning, Glendale, AZ, USA) with 96-well polystyrene plates. The bottom of the acceptor plate consists of a porous membrane, whereby the pores are lined with a lipid–oil–lipid triple layer. Stock solutions of each test compound at 10 mM were prepared in DMSO or methanol and diluted with phosphate-buffered saline (PBS at a pH of 7.4) to a final concentration of 200 µM. […] The donor plate (bottom plate) was filled with the compound solutions, whereby all compounds were tested in quadruplicates. Each well of the acceptor plate (top plate) was filled with PBS buffer. Donor and acceptor plates were combined and incubated at room temperature for 5 h. After that, the plates were separated and 150 µL of each well of both plates were transferred to 96-well UV plates (Greiner Bio-One). Absorption at different wavelengths covering a range from 200 to 300 nm was measured using a SpectraMax M3 UV plate reader. […] The plates were analyzed at the wavelength where the R2 value of the calibration curve was higher than 0.99 [47].
Recovery of compounds from donor and acceptor wells (mass retention) was calculated as shown in the equation below. Data were only accepted when recovery exceeded 70%. The equation is as follows:(3) R=1−[cDt×VD+cAt×VA]/(c0×VD) where

[2] = Resazurin-based in vitro cytotoxicity with L-6 cells; type: cell-based, rat; settings: rat
Procedure: Serial drug dilutions of eleven 3-fold dilution steps covering a range from 100 to 0.002 µg/mL were prepared. After 70 h of incubation, the plates were inspected under an inverted microscope to assure growth of the controls and sterile conditions. […] The plates were read with a Spectramax Gemini XS microplate fluorometer (Molecular Devices Cooperation, Sunnyvale, CA, USA) using an excitation wavelength of 536 nm and an emission wavelength of 588 nm. IC50 values were calculated by linear regression from the sigmoidal dose–inhibition curves using SoftmaxPro software Version 8.2.1 (Molecular Devices Cooperation, Sunnyvale, CA, USA). Podophyllotoxin (Sigma P4405) was used as control.

E. coli NCTC 13353 = experiment: MIC/MBC microbroth dilution (EUCAST); type: cell-based, Escherichia coli; settings: for MBC: NCTC13353
Procedure: (§1) Minimum inhibitory concentrations (MIC values) were obtained using the microbroth dilution method as stated in the EUCAST guidelines. Tests were conducted on cation adjusted Mueller–Hinton broth (caMHB) or agar (caMHA). These were prepared and stored following the manufacturer’s guidelines. Biological organisms were prepared via growth on either Luria–Bertani (LB) or cation adjusted Mueller–Hinton agar plates. These were grown for 24 h at 37 °C, except for Micrococcus luteus where MICs took longer to grow and as a consequence were read after 48 h once a clear positive control could be observed. For the MIC experiment, the bacteria were prepared using the McFarland 0.5 standard and diluted 1 in 100 or 1 in 10 in caMHB following EUCAST and CSLI guidelines for the preparation of bacteria. Testing of the compounds using the microbroth dilution method took place in 96-well plates. Serial 2-fold dilutions of compounds in caMHB covering a range from 256 µg/mL to 0.25 µg/mL were prepared. Bacteria preparations (McFarland) were added to the compound dilutions, further halving the compound concentrations. The plate was then incubated for 18 h at 37 °C. Controls for the MIC experiments included a bacterial growth (positive) control of bacteria and caMHB only and a media only (negative) control. After incubation, the plates were read, whereby the positive control of bacteria was visible and the negative control was clear of contamination. The last clear well, where there is no growth of bacteria, was counted as the MIC value. […] The lowest concentration without any bacterial growth was counted as the MBC value. The following pathogens were used: Pseudomonas aeruginosa NCTC 13437, Escherichia coli NCTC 13353, Bacillus subtilis 168a, Serratia marcescens NCTC 9940, Micrococcus luteus ATCC 10240, Staphylococcus aureus JE2 USA 300, Acinetobacter baumannii ATCC 19606, and Klebsiella pneumoniae ATCC 700603. A concentration range of 256 µg/mL to 0.25 µg/mL of a combination of ciprofloxacin and meropenem against E. coli 25922 was used as an antibiotic control to ensure correct dilution and performance of the assay.

A. baumannii ATCC 19606 = experiment: MIC/MBC microbroth dilution (EUCAST); type: cell-based, Acinetobacter baumannii; settings: for MBC: ATCC19606
Procedure: as §1

B. subtilis 168a = experiment: MIC/MBC microbroth dilution (EUCAST); type: cell-based, Bacillus subtilis
Procedure: as §1

P. aeruginosa NCTC 13437 = experiment: MIC/MBC microbroth dilution (EUCAST); type: cell-based; settings: Pseudomonas aeruginosa, NCTC13437
Procedure: as §1

S. aureus JE2 USA 300 = experiment: MIC/MBC microbroth dilution (EUCAST); type: cell-based; settings: Staphylococcus aureus, USA300, S. aureus JE2 USA 300
Procedure: as §1

[3] = test system: K. pneumoniae ATCC 700603; experiment: MIC/MBC microbroth dilution (EUCAST); type: cell-based; settings: Klebsiella pneumoniae, ATCC700603
Procedure: as §1

S. marcescens NCTC 9940 = experiment: MIC/MBC microbroth dilution (EUCAST); type: cell-based; settings: Serratia marcescens, NCTC9940
Procedure: as §1

[4] = Resazurin-based in vitro cytotoxicity with HepG2 cells; type: cell-based, human; settings: HepG2 cells; human hepatocarcinoma cells, 48 h
Procedure: The HepG2 cells were washed with DPBS (Dulbecco’s PBS without calcium and magnesium, Gibco, Cat #21600-044) and trypsinized with trypsin solution in DPBS. Trypsinization was stopped by adding culture medium, and after being stained with Trypan Blue (SORS Ukraine) cells were counted using a counting chamber (Hausser Scientific, Cat #3500). The cell suspension was placed in a falcon tube containing plating medium DMEM/High glucose with 1% fetal bovine serum, 100 units/mL penicillin, and 100 µg/mL streptomycin. Cells at a density of 250,000 cells/mL were seeded in sterile 384-well plates (Greiner Bio-One, Cat #781091) in a volume of […] and incubated at 37 °C and 5% CO2. Serial dilutions of ten 3-fold dilution steps of test and reference compounds covering a range from 100.0 to 0.005 µM were added to the wells, followed by incubation at 37 °C and 5% CO2 for 48 h. Then, resazurin (50 µM final concentration) was added and plates were incubated for another 3 h. The plates were read with a SpectraMax microplate reader (Molecular Devices Cooperation, Sunnyvale, CA, USA)) using an extinction wavelength of 555 nm and an emission wavelength of 570 nm. IC50 values were calculated using GraphPad Prism 9.0 charting software. Doxorubicin (Sigma Aldrich D1515) was used as control.

M. luteus ATCC 10240 = experiment: MIC/MBC microbroth dilution (EUCAST); type: cell-based, Micrococcus luteus
Procedure: as §1

[5] = Plasmodium falciparum, NF54, chloroquine-sensitive strain NF54, erythrocytic stages
[6] = Escherichia coli, NCTC13353, read-out: MIC
[7] = Acinetobacter baumannii, ATCC19606, read-out: MIC
[8] = Bacillus subtilis, 168A, read-out: MIC
[9] = Micrococcus luteus, ATCC10240, M. luteus ATCC 10240, read-out: MBC
[10] = Micrococcus luteus, ATCC10240, M. luteus ATCC 10240, read-out: MIC

| Structure (SMILES) | pIC50 (P. falciparum NF54; [5]) | Papp at 5 h, 200 µM [1] [×10⁻⁶ cm/s] | IC50 at 70 h [2] [µM] | MBC (E. coli NCTC 13353; Escherichia coli) [µg/mL] | MIC (E. coli NCTC 13353; [6]) [µg/mL] | MBC (A. baumannii ATCC 19606; Acinetobacter baumannii) [µg/mL] | MIC (A. baumannii ATCC 19606; [7]) [µg/mL] | MBC (B. subtilis 168a; Bacillus subtilis, 168A) [µg/mL] | MIC (B. subtilis 168a; [8]) [µg/mL] | MBC (P. aeruginosa NCTC 13437) [µg/mL] | MIC (P. aeruginosa NCTC 13437) [µg/mL] | MBC (S. aureus JE2 USA 300) [µg/mL] | MIC (S. aureus JE2 USA 300) [µg/mL] | MBC [3] [µg/mL] | MIC [3] [µg/mL] | MBC (S. marcescens NCTC 9940) [µg/mL] | MIC (S. marcescens NCTC 9940) [µg/mL] | IC50 at 48 h [4] [µM] | MBC (M. luteus ATCC 10240; [9]) [µg/mL] | MIC (M. luteus ATCC 10240; [10]) [µg/mL] | also measured |
| --- | --- | --- | --- | --- | --- | --- | --- | --- | --- | --- | --- | --- | --- | --- | --- | --- | --- | --- | --- | --- | --- |
| CN1CCN(C(=O)c2cccc(C(F)(F)F)c2Oc2ccc(F)cc2)CC1 [Compound 49, [2-(4-Fluorophenoxy)-3-(trifluoromethyl)phenyl](4-methylpiperazin-1-yl)methanon] | 4.26 | 8.5 | 137 | > 256 | 256 | > 256 | 256 | > 256 | 256 | > 256 | 256 | > 256 | > 256 | > 256 | > 256 | > 256 | > 256 | > 100 | 256 | 256 |  |
| O=C(c1cccc(C(F)(F)F)c1Oc1ccc(F)cc1)N1CCOCC1 [Compound 51, [2-(4-Fluorophenoxy)-3-(trifluoromethyl)phenyl](morpholin-4-yl)methanon] | 4.09 | 10.4 | 154 | > 256 | > 256 | 256 | 256 | > 256 | 256 | > 256 | > 256 | > 256 | > 256 | > 256 | > 256 | > 256 | > 256 | > 100 | 128 | 256 |  |
| O=C(Nc1ccccc1N1CCNCC1)c1cccc(C(F)(F)F)c1Sc1ccc(F)cc1 [Compound 55, 2-[(4-Fluorophenyl)sulfanyl]-N-[2-(piperazin-1-yl)phenyl]-3-(trifluoromethyl)benz-amide] | 6.16 | 4.41 | 7.06 | 64 | 32 to 64 | 64 | 32 to 64 |  | 16 to 64 | > 256 | 256 |  |  | > 256 | > 256 | > 256 | 256 | 4.6 | 16 to 64 | 16 to 64 | pIC50 (P. falciparum NF54; chloroquine-sensitive strain NF54, erythrocytic stages): 6.16; Pe [1]: 6.51 10^−6 cm/s; MIC (E. coli NCTC 13353): 64 µg/mL; MIC (A. baumannii ATCC 19606): 32 µg/mL; MIC (B. subtilis 168a): 32 µg/mL; MBC (M. luteus ATCC 10240; M. luteus ATCC 10240): 16 µg/mL; MIC (M. luteus ATCC 10240; M. luteus ATCC 10240): 16 µg/mL |
